According to ChEMBL document CHEMBL1147331, “Cytotoxic and antimalarial bisbenzylisoquinoline alkaloids from Stephania erecta” (J Nat Prod, 1993):
Converted amounts (≈) assume the structure as drawn.

Legend:
Plasmodium falciparum [1] = test: Antimalarial activity after 24 hrs against chloroquine-sensitive Plasmodium falciparum D6 infected type A+ human erythrocytes by [3H]hypoxanthine uptake; type: functional; conditions: read-out: ED50 (the source's name)
Plasmodium falciparum [2] = test: Antimalarial activity after 24 hrs against chloroquine-resistant Plasmodium falciparum W2 infected type A+ human erythrocytes by [3H]hypoxanthine uptake; type: functional; conditions: read-out: ED50 (the source's name)
[3] = Cytotoxicity against human BCA1 cells after 3 days by sulforhodamine B assay; type: cell-based; conditions: read-out: ED50
[4] = Cytotoxicity against human HT1080 cells after 3 days by sulforhodamine B assay; type: cell-based, HT-1080; conditions: read-out: ED50
[5] = Cytotoxicity against human LUC1 cells after 3 days by sulforhodamine B assay; type: cell-based; conditions: read-out: ED50
[6] = Cytotoxicity against human SK-MEL-2 cells after 3 days by sulforhodamine B assay; type: cell-based; conditions: read-out: ED50
[7] = Cytotoxicity against human Col1 cells after 3 days by sulforhodamine B assay; type: cell-based; conditions: read-out: ED50
[8] = Cytotoxicity against human KB cells after 3 days by sulforhodamine B assay; type: cell-based; conditions: read-out: ED50
[9] = Cytotoxicity against human KBV1 cells after 3 days by sulforhodamine B assay; type: cell-based, KB-V1; conditions: read-out: ED50
[10] = Cytotoxicity against mouse P388 cells after 2 days by sulforhodamine B assay; type: cell-based; conditions: read-out: ED50
[11] = Cytotoxicity against human A431 cells after 3 days by sulforhodamine B assay; type: cell-based, A-431; conditions: read-out: ED50
[12] = Cytotoxicity against human LNCAP cells after 3 days by sulforhodamine B assay; type: cell-based; conditions: read-out: ED50
[13] = Cytotoxicity against human ZR-75-1 cells after 3 days by sulforhodamine B assay; type: cell-based; conditions: read-out: ED50
[14] = Selectivity index, ratio of ED50 for human BCA1 cells to ED50 for chloroquine-sensitive Plasmodium falciparum D6; type: toxicity, cell-based; conditions: read-out: Ratio ED50
[15] = Selectivity index, ratio of ED50 for human BCA1 cells to ED50 for chloroquine-resistant Plasmodium falciparum W2; type: toxicity, cell-based; conditions: read-out: Ratio ED50
[16] = Selectivity index, ratio of ED50 for human HT1080 cells to ED50 for chloroquine-sensitive Plasmodium falciparum D6; type: toxicity, cell-based, HT-1080; conditions: read-out: Ratio ED50
[17] = Selectivity index, ratio of ED50 for human HT1080 cells to ED50 for chloroquine-resistant Plasmodium falciparum W2; type: toxicity, cell-based, HT-1080; conditions: read-out: Ratio ED50
[18] = Selectivity index, ratio of ED50 for human LUC1 cells to ED50 for chloroquine-sensitive Plasmodium falciparum D6; type: toxicity, cell-based; conditions: read-out: Ratio ED50
[19] = Selectivity index, ratio of ED50 for human LUC1 cells to ED50 for chloroquine-resistant Plasmodium falciparum W2; type: toxicity, cell-based; conditions: read-out: Ratio ED50
[20] = Selectivity index, ratio of ED50 for human MEL2 cells to ED50 for chloroquine-sensitive Plasmodium falciparum D6; type: toxicity, cell-based; conditions: read-out: Ratio ED50
[21] = Selectivity index, ratio of ED50 for human MEL2 cells to ED50 for chloroquine-resistant Plasmodium falciparum W2; type: toxicity, cell-based; conditions: read-out: Ratio ED50
[22] = Selectivity index, ratio of ED50 for human COL1 cells to ED50 for chloroquine-sensitive Plasmodium falciparum D6; type: toxicity, cell-based; conditions: read-out: Ratio ED50
[23] = Selectivity index, ratio of ED50 for human COL1 cells to ED50 for chloroquine-resistant Plasmodium falciparum W2; type: toxicity, cell-based; conditions: read-out: Ratio ED50
[24] = Selectivity index, ratio of ED50 for human KB cells to ED50 for chloroquine-sensitive Plasmodium falciparum D6; type: toxicity, cell-based; conditions: read-out: Ratio ED50
[25] = Selectivity index, ratio of ED50 for human KB cells to ED50 for chloroquine-resistant Plasmodium falciparum W2; type: toxicity, cell-based; conditions: read-out: Ratio ED50
[26] = Selectivity index, ratio of ED50 for human KB-V1 cells to ED50 for chloroquine-sensitive Plasmodium falciparum D6; type: toxicity, cell-based; conditions: read-out: Ratio ED50
[27] = Selectivity index, ratio of ED50 for human KB-V1 cells to ED50 for chloroquine-resistant Plasmodium falciparum W2; type: toxicity, cell-based; conditions: read-out: Ratio ED50
[28] = Selectivity index, ratio of ED50 for human LNCaP cells to ED50 for chloroquine-sensitive Plasmodium falciparum D6; type: toxicity, cell-based; conditions: read-out: Ratio ED50
[29] = Selectivity index, ratio of ED50 for human LNCaP cells to ED50 for chloroquine-resistant Plasmodium falciparum W2; type: toxicity, cell-based; conditions: read-out: Ratio ED50
[30] = Selectivity index, ratio of ED50 for human ZR-75-1 cells to ED50 for chloroquine-sensitive Plasmodium falciparum D6; type: toxicity, cell-based; conditions: read-out: Ratio ED50
[31] = Selectivity index, ratio of ED50 for human ZR-75-1 cells to ED50 for chloroquine-resistant Plasmodium falciparum W2; type: toxicity, cell-based; conditions: read-out: Ratio ED50
[32] = Ratio of ED50 for human KB cells to ED50 for human KBV1 cells; type: ADME, cell-based; conditions: KB cells and KBV1 cells, read-out: Ratio ED50
in vitro [33] = conditions: mouse, P388 cells
Description: Selectivity index, ratio of ED50 for mice (Mus musculus) P388 cells to ED50 for chloroquine-sensitive Plasmodium falciparum D6

in vitro [34] = conditions: mouse, P388 cells; remark: listed apart in the source
Description: Selectivity index, ratio of ED50 for mice (Mus musculus) P388 cells to ED50 for chloroquine-resistant Plasmodium falciparum W2

in vitro [35] = conditions: human, A431 cells
Description: Selectivity index, ratio of ED50 for human A431 cells to ED50 for chloroquine-sensitive Plasmodium falciparum D6

in vitro [36] = conditions: human, A431 cells; remark: listed apart in the source
Description: Selectivity index, ratio of ED50 for human A431 cells to ED50 for chloroquine-resistant Plasmodium falciparum W2

COc1ccc2cc1Oc1ccc(cc1)C[C@H]1c3c(cc(OC)c4c3Oc3cc5c(cc3O4)CCN(C)[C@@H]5C2)CCN1C
EC50 (Plasmodium falciparum [1]): 0.0974 µg/mL (≈ 0.169 µM)
EC50 (Plasmodium falciparum [2]): 0.256 µg/mL (≈ 0.443 µM)
CC50 at 72 h [3]: 2.3 µg/mL (≈ 3.99 µM)
CC50 at 72 h [4]: 2.2 µg/mL (≈ 3.81 µM)
CC50 at 72 h [5]: 7.7 µg/mL (≈ 13.4 µM)
CC50 at 72 h [6]: 8.7 µg/mL (≈ 15.1 µM)
CC50 at 72 h [7]: 3.6 µg/mL (≈ 6.24 µM)
CC50 at 72 h [8]: 4.8 µg/mL (≈ 8.32 µM)
CC50 at 72 h [9]: 0.4 µg/mL (≈ 0.694 µM)
CC50 at 48 h [10]: 5.6 µg/mL (≈ 9.71 µM)
CC50 at 72 h [11]: 2.6 µg/mL (≈ 4.51 µM)
CC50 at 72 h [12]: 2.1 µg/mL (≈ 3.64 µM)
CC50 at 72 h [13]: 1.2 µg/mL (≈ 2.08 µM)
selectivity ratio [14]: 24
selectivity ratio [15]: 9
selectivity ratio [16]: 23
selectivity ratio [17]: 9
selectivity ratio [18]: 79
selectivity ratio [19]: 30
selectivity ratio [20]: 89
selectivity ratio [21]: 34
selectivity ratio [22]: 37
selectivity ratio [23]: 14
selectivity ratio [24]: 49
selectivity ratio [25]: 19
selectivity ratio [26]: 4
selectivity ratio [27]: 2
selectivity ratio [28]: 22
selectivity ratio [29]: 8
selectivity ratio [30]: 12
selectivity ratio [31]: 5
selectivity ratio [32]: 10
selectivity ratio (in vitro [33]): 57
selectivity ratio (in vitro [34]): 22
selectivity ratio (in vitro [35]): 27
selectivity ratio (in vitro [36]): 10
